Results published in patent US20200383905A1 (priority 2015, published 2020).
Structures can show the parent of a compound that is named as a salt. Where two headings read alike, the source gives them in different places.

Assays:
[1] = Example 5: multiple-dose 3-way crossover PK study of two IV regimens vs 100 mg oral Q6h; settings: for Cmax: human, plasma, iv, 50 mg, 50 mg IV regimen; for AUCtau 1: first dosing interval
Description: The term “STD” as used herein means standard deviation. […] The term “Css” means steady-state concentration. The term “Cmax” means maximum concentration. The term “AUC” means area under the curve. […] The term “PIT” means peak to trough.

rats and dogs = settings: repeat-dose; cited from earlier work
[2] = oral administration; cited from earlier work
[3] = cited from earlier work
[4] = in vivo; cited from earlier work
[5] = mean cumulative doses 449 to 868.3 mg over 24, 36 and 48 h; cited from earlier work
[6] = tested on: experienced opioid abusers; settings: tramadol 100 and 200 mg IV, cited from earlier work; for Ratings of feel drug effect compared to placebo / Ratings of liking: morphine 10 and 20 mg IV over 5 minutes; for Ratings of feel drug effect compared to placebo: 10 experienced opioid abusers
[7] = Observed steady-state PK of oral tramadol Q6h (threshold PK parameters); settings: for AUC / Cmax: human, plasma, po
animal model = settings: cited from earlier work
μ opioid = settings: animal model; cited from earlier work
postoperative pain = settings: IV or IM intermittent injection, dose titrated to pain response; cited from earlier work
[8] = plasma tramadol, 50 mg IV at h 0, 2, 4 then q4h, mean
[9] = plasma tramadol, 75 mg IV at h 0, 3, 6 then q6h, mean
[10] = plasma tramadol, 100 mg oral q6h, mean
[11] = plasma 0-desmethyltramadol, tramadol 50 mg IV at h 0, 2, 4 then q4h, mean
[12] = plasma 0-desmethyltramadol, tramadol 75 mg IV at h 0, 3, 6 then q6h, mean
[13] = plasma 0-desmethyltramadol, tramadol 100 mg oral q6h, mean
[14] = 60 mg oral tramadol dose, by extrapolation
[15] = 100 mg oral tramadol Q6h, steady-state, geometric mean, observed
[16] = 120 mg oral tramadol dose, by extrapolation

`COc1cccc([C@]2(O)CCCC[C@H]2CN(C)C)c1` (racemic) [Tramadol, (±)cis-2-[(dimethylamino)methyl]-1-(3-methoxyphenyl) cyclohexanol hydrochloride] showed a Cmax ([1]; Mean Cmax after the first dose, plasma tramadol) of roughly 273 ng/mL, a Cmax ([1]; Mean Cmax after the second dose, plasma tramadol) of roughly 451 ng/mL and a Cmax ([1]; Mean Cmax concentration after the third administered dose, plasma tramadol) of roughly 666 ng/mL. The C48 [1, 8] was 448 ng/mL, the “Cmax(2-4)” value [1, 8] was 479 ng/mL and the “P/T Ratio First” value [1, 8] was 1.4566. For the same compound, the “P/T Ratio Last” value [1, 8] was 1.6370, the C48 [1, 9] was 354 ng/mL and the “P/T Ratio First” value [1, 9] was 2.0658. For the same compound, the “P/T Ratio Last” value [1, 9] was 2.3692, the C48 [1, 10] was 497 ng/mL and the “P/T Ratio First” value [1, 10] was 1.9824. For the same compound, the “P/T Ratio Last” value [1, 10] was 1.4400, the “Dose with behavioral/clinical signs and convulsions” value (rats and dogs) was greater than 25 mg/kg/day and the “Fertility or teratogenic effects” value [2] was “no safety concerns with respect to fertility or teratogenic effects”. For the same compound, the AUC0-24h ([3]; 100 mg i.v.) was 3709 ± 977 ng·h/mL, the Vd ([3]; 100 mg i.v.) was 203 L and the t1/2 ([3]; 100 mg i.v.) was 5.2 h. For the same compound, the AUC0-24h ([3]; 100 mg p.o.) was 2488 ± 774 ng·h/mL, the Cmax ([3]; 100 mg p.o.) was 280 ± 49 ng/mL and the Vd ([3]; 100 mg p.o.) was 306 L. For the same compound, the “Distribution half-life, initial phase” value ([3]; IV administration) was 0.31 ± 0.17 h, the “Half-life of slower distribution phase” value ([3]; IV administration) was 1.7 ± 0.4 h and the “Absolute bioavailability with continuous dosing” value ([3]; oral, continuous dosing (Liao 1992)) was 90-100%. The “Time to reach steady-state” value [4] was 42 to 48 h, the Serious adverse effects [5] was “no serious adverse effects were observed” and the “Ratings of feel drug effect compared to placebo” value [6] was “significantly increased ratings”. For the same compound, the Ratings of liking [6] was “neither dose of tramadol increased ratings”, the AUC ([7]; 50 mg) was 1640 ng·h/mL and the Cmax ([7]; 50 mg) was 340 ng/mL. For the same compound, the Cmax ([7]; 60 mg) was 408 ng/mL, the AUC ([7]; 100 mg) was 3230 ng·h/mL and the Cmax ([7]; 100 mg) was 676 ng/mL. The AUC ([7]; 120 mg) was 3880 ng·h/mL and the Cmax ([7]; 120 mg) was 811 ng/mL.
With `CN(C)C[C@H]1CCCC[C@]1(O)c1cccc(O)c1` [M1, 0-desmethyltramadol] the “AUCtau 1” value [1, 11] was 39.93 ng·h/mL, the AUCtau n ([1]; plasma 0-desmethyltramadol, tramadol 50 mg IV at h 0, 2, 4 then q4h, last dosing interval, mean) was 355.6 ng·h/mL and the C48 [1, 11] was 81.7 ng/mL. The “AUCtau 1” value [1, 12] was 108.3 ng·h/mL, the C48 [1, 12] was 75.9 ng/mL and the “AUCtau 1” value [1, 13] was 272.1 ng·h/mL. The C48 [1, 13] was 111 ng/mL, the “Cmax(42-48)” value ([1]; plasma 0-desmethyltramadol, tramadol 100 mg oral q6h, steady-state, mean) was “about 146 ng/mL” and the “Potency in producing analgesia, times more potent than the parent compound” value (animal model) was 6 times. For the same compound, the “Potency in μ opioid binding, times more potent than the parent compound” value (μ opioid) was 200 times, the “M1 AUC6” value ([7]; 50 mg oral tramadol dose) was 491 ng·h/mL and the “M1 Cmax” value ([7]; 50 mg oral tramadol dose) was 96 ng/mL. The “M1 AUC6” value [7, 14] was 589 ng·h/mL, the “M1 Cmax” value [7, 14] was 115 ng/mL and the “M1 AUC6” value [7, 15] was 668 ng·h/mL. The “M1 Cmax” value [7, 15] was 125 ng/mL, the “M1 AUC6” value [7, 16] was 802 ng·h/mL and the “M1 Cmax” value [7, 16] was 150 ng/mL.
For `CN1CC[C@]23c4c5ccc(O)c4O[C@H]2[C@@H](O)C=C[C@H]3[C@H]1C5` [morphine], the “Reduction of pain intensity after 4 to 6 hours” value (postoperative pain) is listed as 69.8%, the “Ratings on the ARCI-MBG scale” value ([6]; morphine 20 mg IV over 5 minutes) is listed as “increased ratings on the ARCI-MBG scale” and the “Ratings of feel drug effect compared to placebo” value [6] is listed as “significantly increased ratings”. The Ratings of liking [6] was “significantly increased ratings”.
